For orientation: Kd means the equilibrium constant for the complex coming apart.

Each structure is given as a SMILES string.

The target of series [1] is FK506 Binding Protein (FKBP) (Homo sapiens, UniProt P62942). The settings on record: ligand independently; cited from earlier work.
In the next series the target is mutated FKBP (Homo sapiens, UniProt P62942, F37V). Conditions: cited from earlier work.
In the next series the test system is COS cells. The experiment in a line: peroxisome translocation assay (PEX-RFP-FKBP / DHFR-Kif 1a motor domain). It is filed as cell-based. The procedure:
Preliminary tests of Zapalog efficacy in COS cells were also carried out, using a peroxisome translocation assay adapted from Kapitein et al., 2010 (13) and illustrated in FIG. 4. The FKBP domain is coupled to RFP and a peroxisome-binding domain (PEX). The DHFR domain is fused to the motor domain of the kinesin Kif 1a. In the absence of a CID to couple these two proteins, the peroxisomes are stationary and located near the nucleus while the motor (visualized by immunocytochemistry) is diffuse in the cytosol (FIG. 4 DMSO). […] In a live-imaging experiment (FIG. 5), the addition of Zapalog initiated clear movement of the peroxisomes in less than 2 minutes. The dispersal of peroxisomes was reversed by exposure to a 405 nm laser. […] 5) the affinity of Zapalog in vivo is high enough to permit the transport of an organelle by a tethered motor. 6) Zapalog is photo-cleavable in vivo by 405 nm light. […] The experiments described herein seek to characterize Zapalog in sufficient detail to enable its use as a photo-cleavable CID. In particular, experiments were designed to determine the kinetics of Zapalog-induced dimerization and cleavage and whether it could be used to recreate a fully functional split kinesin for studies of motor interactions.

Series [2] is described as follows: HPLC analysis of Zapalog before and after exposure to 405 nm light. It is filed as physicochemical. The settings on record: after exposure to 405 nm light. The procedure: Zapalog was synthesized and 10 mg of TLC purified material was determined to be >98% pure by LCMS/HPLC and containing less than 0.1% of the monomeric ligands TMP and SLF.
The test system of a further series is COST cells. The series is described as follows: YFP reporter relocalization to outer mitochondrial membrane (YFP-DHFR / Tom20-mCherry-FKBP). It is filed as cell-based. The text has this:
In one set of experiments, Zapalog's efficacy as a dimerizing agent and the efficacy of light-induced cleavage was examined in simple assays of subcellular localization of a YFP reporter adapted from Komatsu et al., (Komatsu et al. Nature Methods 7: 206-8) and illustrated in FIG. 7 (optionally, a GFP or other reporter could have been used). An assay of Zapalog function was developed based on tethering a YFP reporter to the outer mitochondrial membrane of COST cells. In this assay, the YFP reporter was fused to the DHFR domain and, by default, was cytosolic. The FKBP domain was bound to the outer membrane of mitochondria with the N-terminus sequence of Tom20. The FKBP construct was tagged with mCherry. […] Subsequent 405 nm illumination caused immediate (<5 sec) release of YFP back to the cytosol. This redistribution was followed in video microscopy and quantified as a ratio of membrane bound to cytoplasmic fluorescence intensity

Chain of mutated FKBP (P62942 2-108 F37V limits assumed): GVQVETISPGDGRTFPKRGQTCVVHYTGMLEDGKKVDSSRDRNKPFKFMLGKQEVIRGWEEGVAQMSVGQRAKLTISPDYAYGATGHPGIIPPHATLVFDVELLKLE
Chain of FK506 Binding Protein (FKBP) (P62942 whole entry): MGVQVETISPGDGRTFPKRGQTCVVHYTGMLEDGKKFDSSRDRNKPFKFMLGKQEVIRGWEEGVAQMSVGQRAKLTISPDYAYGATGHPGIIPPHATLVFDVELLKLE

Take `CCC(C)(C)C(=O)C(=O)N1CCCCC1C(=O)OC(CCc1ccc(OC)c(OC)c1)c1cccc(N)c1` (stereo not drawn) [SLF]: the affinity in series [1] is on record as about 1 nM.

On to `CCC(C(=O)N1CCCCC1C(=O)O[C@H](CCc1ccc(OC)c(OC)c1)c1cccc(OCC(=O)O)c1)c1cc(OC)c(OC)c(OC)c1` (stereo partly drawn) [SLF′], for which the Kd on mutated FKBP is 0.094 nM.

With `CCC(C)(C)C(=O)C(=O)N1CCCC[C@H]1C(=O)O[C@H](CCc1ccc(OC)c(OC)c1)c1cccc(NC(=O)CCCOc2cc([N+](=O)[O-])c(C(C)OCCOc3c(OC)cc(Cc4cnc(N)nc4N)cc3OC)cc2OC)c1` (stereo partly drawn) [Zapalog], in the series with COS cells, the “binding to DHFR and FKBP domains in vivo” value is “can bind to the DHFR and FKBP domains in vivo”; the heterodimerization entry is reported as “can cause heterodimerization”; the toxicity to cells entry is on record as “not toxic to cells”. Besides, the “translocation of motor domain to peroxisomes and redistribution of peroxisomes” value with COS cells (1 uM, in the dark, COS cells) was “caused the translocation of the motor domain to the peroxisomes and the redistribution of the peroxisomes to the periphery of the cell”. The “effect of exposure of treated cells to light” value with COS cells (COS cells, light after CID addition) is “caused the motor to detach from peroxisomes and resume its diffuse distribution”. For the same compound, the “time to clear movement of peroxisomes after addition” value with COS cells (live imaging) is given as “less than 2 minutes”. The “dispersal of peroxisomes after 405 nm laser” value in the series with COS cells (live imaging, 405 nm laser) was “reversed”. Besides, the “photolytic cleavage by HPLC” value in series [2] is reported as “complete photolytic cleavage”. Further, the “time to relocalization of YFP to the mitochondrial surface” value in the series with COST cells (1 μM in the dark) was 4 to 5 min. Also, the “time to release of YFP back to the cytosol” value with COST cells (subsequent 405 nm illumination) was under 5 s.

These data come from patent US10053445B2, “Photocleavable chemical inducers of dimerization (CID) and methods of use” (Children's Medical Center Corporation, priority 2013, dated 2018).
